These are literature values, as cited in US20260285945A1, “OMOMYC AND KRAS INHIBITORS COMBINATION THERAPY FOR THE TREATMENT OF CANCER” (PEPTOMYC, S.L., priority 2023, published 2026).

The subject of this data set is cancer cell proliferation. The settings on record: single agent; background of the invention.

For the compound `CNCc1ccccc1-c1csc([C@@H](C)Nc2nc(C)nc3cc(OC)c(OC)cc23)c1` [BAY-293], the “Inhibition of cancer cell proliferation, potency” value is “weak potency”.
